Tests used:
[1] = molecular target: T1, aldose reductase (human recombinant, expressed in SF 9 cells) (Homo sapiens, UniProt P15121); assay: Aldose reductase assay, reduction of glucose to sorbitol (NADPH oxidation, absorbance at 340 nm); assay type: biochemical
Experimental: (§1) Aldose reductase assays were as described in Nishimura C., Yamaoka T., Mizutani M., Yamashita K., Akera T., Tanimoto T., Purification And Characterization Of The Recombinant Human Aldose Reductase Expressed In Baculovirus System, Biochem. Biophys. Acta, Jun. 24, 1991; 1078(2):171-8.
(§2) Briefly, Dimesna (0-20 μM) was incubated at 37° C. with aldose reductase (0.0016 units, human recombinant, expressed in SF 9 cells) and NADPH (0.15 mM) in sodium phosphate buffer (100 mM, pH 6.2). To initiate assays, glucose (10-150 mM) was added to reactions and the decrease in absorbance at 340 nm (oxidation of NADPH) was monitored. Assays were run in duplicate or triplicate. Slopes were calculated using Varian-Cary software package 2.0 and averaged. In all cases errors were 4% or less. Lineweaver Burk analysis (Enzyme Kinetics, version 1.61) was used to calculate inhibition constants.

[2] = molecular target: T1, aldose reductase (human recombinant, expressed in SF 9 cells); assay: Aldose reductase assay, NADPH dependent reduction of glyceraldehyde; assay type: biochemical; details: substrate glyceraldehyde 0.050-6 mM, 37° C., Lineweaver Burk analysis, read-out: Ki, inhibition of aldose reductase catalyzed reduction of glyceraldehyde to aldose
Experimental: as §1, §2
Aldose reductase assays were as described above. Dimesna (0-30 mM) was evaluated for its effect on the NADPH dependent reduction of glyceraldehyde (0.050-6 mM) to aldose at 37° C. Assays were run in duplicate or triplicate. Slopes were calculated using Varian-Cary software package 2.0 and averaged. In all cases errors were 4% or less. Lineweaver Burk analysis (Enzyme Kinetics, version 1.61) was used to calculate inhibition constants.

mice = details: intravenous; cited from earlier work
dogs = details: intravenous; cited from earlier work
humans = details: cited from earlier work
[3] = accepted value; cited from earlier work

| SMILES | Type of inhibition of the aldose reductase reaction ([1]; Lineweaver Burk plots nearly parallel, glucose and glyceraldehyde substrates) | Ki ([1]; substrate glucose 10-150 mM, NADPH 0.15 mM, pH 6.2, 37° C., Lineweaver Burk analysis, read-out: Ki, inhibition of aldose reductase catalyzed reduction of glucose to sorbitol) | Ki [2] | Dose administered with no adverse effects (mice) | Dose administered with no adverse effects (dogs) | Dose administered with no adverse effects (humans) | oral LD50 [3] |
| --- | --- | --- | --- | --- | --- | --- | --- |
| O=S(=O)([O-])CCSSCCS(=O)(=O)[O-].[Na+].[Na+] [Dimesna, disodium 2,2'-dithiobis ethane sulfonate] | uncompetitive inhibition | 32 µM | 15.5 µM | > 3750 mg/kg | > 3750 mg/kg | exceeding 15 g/m^2 |  |
| [Cl-].[Na+] [common table salt] |  |  |  |  |  |  | 3750 mg/kg |

— patent publication US6031006A, “Method of treating diabetic nephropathy” (BioNumerik Pharmaceuticals, Inc., priority 1999, dated 2000)
